Assay results published in paper PMC9233675, “Ru(II) photocages enable precise control over enzyme activity with red light” (Nature Communications, 2022).
Several values for one entry are separate records, joined by “and”; a condition that tells them apart may be missing. Identical values can stand only once.

Tests used:
[1] = Irradiation-induced 1O2 production (Singlet Oxygen Sensor Green assay); type: physicochemical; conditions: sheet S27; triplicate columns; DMSO control about 0.9
Text: Some Ru(II) complexes can generate singlet oxygen when photoexcited, a feature that has been applied to the selective photoinactivation of proteins. In this approach, the Ru(II) system is conjugated to a peptide that is a specific ligand for the protein target; binding of the peptide to the protein ensures close proximity of the Ru(II) center and thus, upon photoexcitation, the generation of a high local concentration of singlet oxygen. […] As very little of this reactive oxygen species was generated, inactivation of the CYP enzymes by this process appears unlikely.
Supplementary Figure 27. Determination of irradiation-induced 1O2 production with 660 nm light (1 hr = 58.7 J/cm2)
using the Singlet Oxygen Sensor Green assay. […]

[2] = type: physicochemical
Text: Liver Weight Blood Flow Protein
(g/kg Body Weight) (mL/min/kg) (mg/g liver
Supplementary Table 7. Quantum yields of photosubstitution in different solvents.
Compound Φ(PS) 5% DMSO in H2Oa Φ(PS) Opti-MEMa Φ(PS) CH3OH […]
a Quantum yield for photosubstitution, ΦPS, in 5% DMSO in H2O and Opti-MEM, calculated by optical approach
(Fig. S8-10). b ΦPS in 5% DMSO in H2O, determined by HPLC approach. HPLC was used due to overlap in absorbance profiles for 6 and its photochemical product (Fig. S7).
Supplementary Table 8. Lipinski’s rule of five. […]
a log P was calculated by taking the logarithm of the ratio of the MLCT absorbance of each complex (4-6) in octanol to the corresponding absorbance in H2O.
1. Lameijer, L. N. et al. A Red-Light-Activated Ruthenium-Caged NAMPT Inhibitor Remains Phototoxic in Hypoxic Cancer Cells. Angew. Chem. Int. Ed. Engl. 56, 11549-11553,

recombinant CYP1B1 = molecular target: T1, recombinant CYP1B1 (Homo sapiens, UniProt Q16678); assay: CYP1B1 stability: thermal melt by circular dichroism
T1 sequence (Q16678 51-543 limits assumed): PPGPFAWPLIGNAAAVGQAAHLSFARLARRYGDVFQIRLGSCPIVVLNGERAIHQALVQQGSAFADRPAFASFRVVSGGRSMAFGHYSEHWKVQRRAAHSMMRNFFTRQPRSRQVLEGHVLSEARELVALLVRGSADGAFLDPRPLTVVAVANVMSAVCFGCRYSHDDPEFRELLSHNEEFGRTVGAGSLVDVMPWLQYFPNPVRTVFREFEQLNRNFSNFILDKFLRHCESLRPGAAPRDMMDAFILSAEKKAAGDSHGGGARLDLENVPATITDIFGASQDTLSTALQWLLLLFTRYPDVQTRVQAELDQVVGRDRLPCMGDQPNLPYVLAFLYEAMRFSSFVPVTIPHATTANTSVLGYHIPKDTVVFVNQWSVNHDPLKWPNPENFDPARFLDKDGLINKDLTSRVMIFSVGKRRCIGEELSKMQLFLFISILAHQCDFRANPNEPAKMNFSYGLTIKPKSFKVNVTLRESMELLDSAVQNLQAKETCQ
Description: Circular Dichroism (CD) was used to monitor changes in the secondary structure with increasing temperature. […] CYP1B1 was expressed and purified as reported. […] Spectra were taken scanning from 200 to 260 nm in duplicate. The temperature was increased followed by a 3 min equilibration period before spectra acquisition. The ellipticity values at 230 nm were plotted against temperature and fit to determine the Tm (Prism).

[3] = Stability of compounds in mouse liver microsomes; conditions: for Remaining, % (NCF=60min): mouse liver microsomes, no co-factor (no NADPH); for CLint scaled / Remaining, % (T=60min) / half-life / microsomal CLint: mouse, liver microsomes

| SMILES | irradiation-induced 1O2 production (Singlet Oxygen Sensor Green signal, relative) [1] | log P [2] | increase of thermal stability of CYP1B1 (recombinant CYP1B1; 10 μM compound) | Tm (recombinant CYP1B1; recombinant CYP1B1 + 10 µM compound, no compound 47.9) | Remaining, % (NCF=60min) [3] | CLint scaled [3] | Remaining, % (T=60min) [3] | half-life [3] | microsomal CLint [3] |
| --- | --- | --- | --- | --- | --- | --- | --- | --- | --- |
| COc1ccc(/C=C/c2cc[n+]([Ru-4]345([n+]6ccccc6-c6cccc([n+]63)-c3cccc[n+]34)[n+]3c(cc(C(=O)[O-])c4ccccc43)-c3cc(C(=O)[O-])c4ccccc4[n+]35)cn2)c(OC)c1 [Compound 5] | 1.081 and 0.9897 and 0.9798 | -0.5 | – | – | – | – | – | – | – |
| COc1ccc(C=Cc2ccncc2)c(OC)c1 [Compound 3] | – | – | 2 °C | 50.4 +/− 0.26 °C | 137.9% | 1900 mL/min/kg | 0.1% | 2.89 min | 480 µL/min/mg |
| COc1ccc(/C=C/c2ccncn2)c(OC)c1 [Compound 2] | – | – | – | – | 111.5% | 3620 mL/min/kg | 0.1% | 1.51 min | 915 µL/min/mg |
| COc1ccc(/C=C/c2cc[n+]([Ru-4]345([n+]6ccccc6-c6cccc([n+]63)-c3cccc[n+]34)[n+]3c(cc(C(=O)[O-])c4ccccc43)-c3cc(C(=O)[O-])c4ccccc4[n+]35)cc2)c(OC)c1 [Compound 6] | 0.9896 and 0.937 and 1.032 | 0.2 | – | – | – | – | – | – | – |
